“And” between values parts separate entries of the source, which are not always exact repeats. Equal entries are not always repeated. Where two headings read alike, the source gives them in different places.
Experiments:
[1] = Experimental rotational energy barrier (thermal racemization, chiral HPLC); format: physicochemical; conditions: 135 °C in xylenes, Eyring equation
Description: (aR)-6 and (aS)-6 were readily separable from one another and racemic iso -6 through the use of a polysaccharide-based chiral column (Diacel IA column) fitted to an automated medium-pressure liquid chromatography unit (Biotage Isolera Prime). Racemization was observable after heating a solution of either enantiopure (aR)- or (aS)-6 at 135 °C in xylenes over a few hours, and the rate of enantiomerization was extrapolated using the Eyring equation (ΔG ^‡ = 31.2 ± 0.3 kcal/mol). (aR)- and (aS )-iso-6 were separable in an analogous fashion using a chiral IC polysaccharide column. […] Thus, we can project that the rotational energy barrier is […] 37 kcal/mol. However, a computationally determined rotational barrier for iso -6 was 33.5 kcal/mol, which is roughly 3 kcal/mol more than that calculated for 6. One potential explanation for this notable difference in configurational stability is the greater double bond character of the methyl-bearing C^4–C^5 carbon of iso -6 in comparison to the C^5–C^6 in 6, as this would both shorten and rigidify this steric-bearing bond (see Scheme A/B for details). […] Studies have previously described differences in rotational barriers of DAAC (2) and its analogous isomer that, while less dramatic, are consistent with this trend (ΔG ^‡ = 22.1 vs 23.4 kcal/mol). […]
IV. Experimental Profiling of Dihedral Angles
Rotational Energy Barrier Determination. A small spatula tip (~0.2 mg) of either (aR)-6 (aka, (aR)-MT-MTC) or (aS)-6 (aka, (aS)-MT-MTC) was diluted in 2 mL o-xylenes in a large vial containing a stir bar. The solution was heated to 135 °C open to air (temperature set to 135 °C, but fluxuated between 134 and 138 °C).
~100 µL aliquots were extracted from solution using a syringe fitted with a long disposable needle at various time intervals and diluted into automated sample vials containing 500 µL CH2Cl2 to rapidly cool. These samples were monitored on Agilent with an analytical HPLC IA column, using 0 – 40% iPrOH in Hexanes gradient over 30 minutes at a flow rate of 0.5 mL/min, and a pressure of roughly 5 bar). Samples eluted approximately 20 minutes into run, with (aR)-6 eluting first, followed by (aS)-6. Three separate runs were carried out, two of which monitored racemization of (aS)-6, and one of which monitored racemization of (aR)- […]
Integration of the HPLC traces were used to determine enantiomeric excess by calculating the difference between the two enantiomers and dividing that by the sum of the two enantiomers, and then multiplying that […]
provided a slope (corresponding to kracemization), and dividing this number […] providing kenantiomerization (or kent in equation below), with units inverse seconds. A summary of data follows (Table S5), and representative chromatograms illustrated in section VI.

RPMI-8226 = tested on: RPMI-8226; parameters: method as in NCI-60 database; conditions: RPMI-8226 ref NCI-60 database, cited from earlier work
NCI 60 cell lines = tested on: NCI 60 cell lines; parameters: method as in NCI-60 database; conditions: cited from earlier work; for _MID Log10LC50: mean graph midpoint ref NCI-60 database
EKVX = tested on: EKVX; parameters: method as in NCI-60 database; conditions: EKVX ref NCI-60 database, cited from earlier work
NCI-H522 = tested on: NCI-H522; parameters: method as in NCI-60 database; conditions: NCI-H522 ref NCI-60 database, cited from earlier work
DLD-1 = tested on: DLD-1; parameters: method as in NCI-60 database; conditions: DLD-1 ref NCI-60 database, cited from earlier work
SNB-19 = tested on: SNB-19; parameters: method as in NCI-60 database; conditions: SNB-19 ref NCI-60 database, cited from earlier work
OVCAR-4 = tested on: OVCAR-4; parameters: method as in NCI-60 database; conditions: OVCAR-4 ref NCI-60 database, cited from earlier work
HCT-116 = tested on: HCT-116; parameters: method as in NCI-60 database; conditions: HCT-116 ref NCI-60 database, cited from earlier work
HOP-18 = tested on: HOP-18; parameters: method as in NCI-60 database; conditions: HOP-18 ref NCI-60 database; cited from earlier work
KM20L2 = tested on: KM20L2; parameters: method as in NCI-60 database; conditions: KM20L2 ref NCI-60 database, cited from earlier work
NCI-H23 = tested on: NCI-H23; parameters: method as in NCI-60 database; conditions: NCI-H23 ref NCI-60 database, cited from earlier work
MALME-3M = tested on: MALME-3M; parameters: method as in NCI-60 database; conditions: MALME-3M ref NCI-60 database, cited from earlier work
[2] = mean graph ref NCI-60 database, listed as 757/1
[3] = mean graph ref NCI-60 database, listed as 757/9

SMILES: COc1cc(C)c(-c2ccc(OC)c(=O)cc2C)c(OC)c1OC (single isomer, unassigned) [(aR)-6]
- ΔG‡ of enantiomerization, experimental [1]: 31.2 ± 0.3 kcal/mol

SMILES: COc1cc2c(c(OC)c1OC)-c1ccc(OC)c(=O)cc1[C@@H](NC(C)=O)CC2 [Colchicine, (−)-Colchicine]
- GI50 (RPMI-8226): < 10 nM
- Log10GI50 (RPMI-8226): < -8 Molar
- Log10LC50 (RPMI-8226): > -4.00 Molar
- Log10TGI (RPMI-8226): > -4.00 Molar
- Log10GI50 (RPMI-8226; listed as 757/1): < -8.00 Molar
- _MID Log10LC50 (NCI 60 cell lines; listed as 757/1): -4.07 Molar and -4.08 Molar
- _MID Log10LC50 (NCI 60 cell lines; listed as 757/21): -4.0 Molar and -4.12 Molar and -4.01 Molar
- Delta Log10GI50 (NCI 60 cell lines; [2]): 0.39 and 0.68
- Delta Log10LC50 (NCI 60 cell lines; [2]): 3.26 and 3.02
- Delta Log10TGI (NCI 60 cell lines; [2]): 3.04 and 2.76
- Range Log10GI50 (NCI 60 cell lines; [2]): 3.72
- Range Log10LC50 (NCI 60 cell lines; [2]): 3.33 and 3.1
- Range Log10TGI (NCI 60 cell lines; [2]): 3.41
- Range Log10GI50 (NCI 60 cell lines; [3]): 1.41
- Range Log10LC50 (NCI 60 cell lines; [3]): 4.0
- Range Log10TGI (NCI 60 cell lines; mean graph ref NCI-60 database, listed as 757/21): 3.89
- GI50 (EKVX): > 100000 nM
- Log10GI50 (EKVX): > -4 Molar
- Log10LC50 (EKVX): > -4.00 Molar
- Log10TGI (EKVX): > -4.00 Molar
- Log10GI50 (EKVX; listed as 757/21): > -4.00 Molar
- GI50 (NCI-H522): 10 nM
- Log10GI50 (NCI-H522): -7.84 Molar
- Log10LC50 (NCI-H522): > -4.00 Molar
- Log10GI50 (NCI-H522; listed as 757/1): -7.64 Molar
- Log10TGI (NCI-H522; listed as 757/1): -7.26 Molar
- Log10TGI (NCI-H522; listed as 757/9): -7.46 Molar
- Log10GI50 (NCI-H522; listed as 757/21): < -8.00 Molar and -7.98 Molar and -7.84 Molar
- Log10LC50 (DLD-1): > -4.00 Molar
- Log10TGI (DLD-1): > -4.00 Molar
- Log10GI50 (DLD-1; listed as 757/1): -7.35 Molar
- GI50 (SNB-19): 40 nM
- Log10GI50 (SNB-19): -7.43 Molar
- Log10LC50 (SNB-19): > -4.00 Molar
- Log10GI50 (SNB-19; listed as 757/1): < -8.00 Molar
- Log10GI50 (SNB-19; listed as 757/9): -7.55 Molar
- Log10GI50 (SNB-19; listed as 757/21): -7.22 Molar and -7.43 Molar
- GI50 (OVCAR-4): 93300 nM
- Log10GI50 (OVCAR-4): -4.03 Molar
- Log10LC50 (OVCAR-4): > -4.00 Molar
- Log10TGI (OVCAR-4): > -4.00 Molar
- Log10GI50 (OVCAR-4; listed as 757/1): -4.45 Molar
- GI50 (HCT-116): 30 nM
- Log10GI50 (HCT-116): -7.49 Molar
- Log10LC50 (HCT-116): > -4.00 Molar
- Log10GI50 (HCT-116; listed as 757/1): -7.41 Molar
- Log10TGI (HCT-116; listed as 757/1): > -4.00 Molar and -4.23 Molar
- Log10GI50 (HCT-116; listed as 757/9): -7.79 Molar
- Log10GI50 (HOP-18): > -4.00 Molar
- Log10LC50 (HOP-18): > -4.00 Molar
- Log10TGI (HOP-18): > -4.00 Molar
- Log10GI50 (KM20L2; listed as 757/1): < -8.00 Molar and -7.72 Molar
- Log10LC50 (KM20L2; listed as 757/1): -7.10 Molar
- Log10GI50 (KM20L2; listed as 757/21): -7.77 Molar
- Log10LC50 (KM20L2; listed as 757/21): -7.19 Molar
- Log10TGI (KM20L2; listed as 757/21): -7.48 Molar
- GI50 (NCI-H23): 30 nM
- Log10GI50 (NCI-H23): -7.54 Molar
- Log10LC50 (NCI-H23; listed as 757/9): -7.14 Molar
- Log10LC50 (NCI-H23; listed as 757/21): > -4.00 Molar
- Log10TGI (NCI-H23; listed as 757/21): > -4.00 Molar
- Log10LC50 (MALME-3M): > -4.00 Molar
- Log10GI50 (MALME-3M; listed as 757/1): -7.28 Molar
- Log10GI50 (MALME-3M; listed as 757/9): -7.97 Molar

— publication PMC12150326 (The Journal of Organic Chemistry, 2025)
